Assay results published in PubChem BioAssay (NCI).
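Five concentrations, 48 hours, 96-well plates. Abbreviation: GI50, concentration required for 50% inhibition of growth. TGI denotes the concentration required for complete inhibition of growth.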 Where a SMILES comes first, the peptide text is derived from it.

Experiments:
Assay in all cases: NCI-60 cell line screen, 48 h
[1] = system: A498 renal
[2] = system: LOX IMVI melanoma
[3] = system: NCI-H460 lung
[4] = system: OVCAR-8 ovarian
[5] = system: SF-539 CNS
[6] = system: U251 CNS
[7] = system: UACC-62 melanoma
[8] = system: UO-31 renal
[9] = system: HS 578T breast
[10] = system: MDA-MB-435

SMILES	TGI [1] [µM]	TGI [2] [µM]	TGI [3] [µM]	TGI [4] [µM]	TGI [5] [µM]	TGI [6] [µM]	TGI [7] [µM]	TGI [8] [µM]	TGI [9] [µM]	TGI [10] [µM]	GI50 [2] [µM]	GI50 [10] [µM]	GI50 [3] [µM]	GI50 [4] [µM]	GI50 [5] [µM]	GI50 [6] [µM]	GI50 [7] [µM]	GI50 [8] [µM]	GI50 [1] [µM]	GI50 [9] [µM]
CCC(C)C1NC(=O)C2CCCN2C(=O)CNC(=O)C(C)NC(=O)C(Cc2ccccc2)NC(=O)C(C(C)C)NC1=O (centres undefined) (cyclo(GPIVFA); configuration not given here)	> 100	> 100	> 100	> 100	> 100	> 100	> 100	> 100	–	–	–	–	–	–	–	–	–	–	–	–
O=C(Nc1cc(Cl)cc(Cl)c1)/C(Cc1nc2ccccc2[nH]c1=O)=N/NC(=O)c1ccncc1	> 100	> 100	> 100	> 100	> 100	> 100	> 100	> 100	–	–	–	–	–	–	–	–	–	–	–	–
CC1C[C@]2(C[C@@H](C)C(=O)O2)O[C@@H]2CC3(C)[C@@H]4CCC5C(C)(C)OC(=O)C[C@H]6OO[C@]4(CC[C@]3(C)C12)CC56O (some centres undefined)	–	> 100	> 100	> 100	> 100	> 100	> 100	> 100	–	–	–	–	–	–	–	–	–	–	–	–
CNS(=O)(=O)NN(C)S(=O)(=O)c1ccc2ccccc2c1	> 100	> 100	–	> 100	> 100	> 100	> 100	> 100	–	–	–	–	–	–	–	–	–	–	–	–
Oc1ccc(CCNCc2cc3c(cc2Br)OCO3)cc1	> 100	> 100	> 100	> 100	> 100	> 100	> 100	> 100	> 100	–	–	–	–	–	–	–	–	–	–	–
Cc1ccn2c(CCc3nnc4cc(C)ccn34)nnc2c1	> 100	–	> 100	> 100	> 100	> 100	> 100	> 100	> 100	> 100	–	–	–	–	–	–	–	–	–	–
O=S(=O)([O-])[O-].[Cl-].[NH2-].[NH2-].[NH2-].[NH2-].[Ru+3].c1ccncc1	> 100	> 100	> 100	> 100	> 100	> 100	> 100	> 100	–	–	–	–	–	–	–	–	–	–	–	–
C#CC1(O)c2ccccc2C(=O)c2ccccc21	> 100	> 100	> 100	> 100	> 100	> 100	–	–	–	–	–	–	–	–	–	–	–	–	–	–
CCOC(=O)[C@H]1Nc2ccc([N+](=O)[O-])cc2C2c3ccccc3CC21 (some centres undefined)	–	33.2	44.7	56.1	31.8	33.1	30.6	44	–	–	–	–	–	–	–	–	–	–	–	–
CCCNC(=O)c1ccc(Cl)cc1Cl	–	> 100	> 100	> 100	> 100	> 100	> 100	> 100	–	> 100	> 100	> 100	> 100	> 100	> 100	> 100	> 100	> 100	–	–
CC(CNCCCNCCNCCCNCO)[N+](=O)[O-] (centres undefined)	32.3	28.2	32.3	27.9	29.2	29.5	29.9	32.3	–	–	–	–	–	–	–	–	–	–	–	–
CC1=C(C(=O)Nc2ccc([N+](=O)[O-])cc2)C(c2ccc3c(c2)OCO3)C(C(=O)Nc2ccc([N+](=O)[O-])cc2)=C(C)N1	69.1	–	> 100	27.9	> 100	> 100	59.4	> 100	–	–	–	–	–	–	–	–	–	–	–	–
Cc1ccc(-c2cc(=O)c3cc(C)c(C)c(C(=O)O)c3o2)cc1N	–	> 100	> 100	> 100	> 100	> 100	> 100	> 100	–	–	–	–	–	–	–	–	–	–	–	–
C[C@]1(Cn2ccnn2)C(C(=O)O)N2C(=O)CC2S1(=O)=O (some centres undefined)	> 100	–	> 100	–	> 100	> 100	> 100	> 100	> 100	> 100	–	> 100	> 100	–	> 100	> 100	> 100	> 100	> 100	> 100
C=CC/C(=C\COP(=O)(OCc1ccc([N+](=O)[O-])o1)N(C)CCCCCl)CC/C=C(\C)CCC=C(C)C (centres undefined)	–	31.4	15.1	25.1	39.4	23	26.7	25.1	–	44.1	13.8	16.8	2.56	12.6	22.5	11	13.8	12.6	–	–
Cc1cc(C(=O)O)c(C)n1-c1cccc(C(=O)O)c1	> 100	> 100	> 100	> 100	> 100	> 100	> 100	> 100	–	> 100	> 100	> 100	> 100	> 100	> 100	> 100	> 100	> 100	> 100	–
C=C1C2CC(OC(C)=O)C3(C)C(c4ccoc4)OC(=O)[C@@H](O)[C@]13OC1C[C@H](OC(C)=O)C(C)(C)[C@H](CC(=O)OC)[C@]12C (some centres undefined)	> 100	> 100	> 100	> 100	> 100	> 100	> 100	> 100	–	–	–	–	–	–	–	–	–	–	–	–
CC12CO[C@@](C)(CC(S(=O)(=O)c3ccccc3)C1)O2 (some centres undefined)	–	–	> 100	> 100	> 100	> 100	> 100	> 100	–	–	–	–	–	–	–	–	–	–	–	–
COc1ccc2c(Cl)cc(NC(=O)Nc3c(C)cccc3C)nc2c1	22.4	> 100	> 100	> 100	46.3	39.2	> 100	12.7	–	40.5	17.3	13.4	4.02	24.7	19.8	13.7	64.3	3	2.9	–
CC(/C=C/c1ccccc1)=N\NC(N)=S	44.5	> 100	> 100	> 100	94.5	> 100	–	> 100	–	84.4	–	–	–	–	–	–	–	–	–	–
COc1ccc(/C(Cl)=C(\c2ccc(OCCN(C)C)cc2)c2ccc(OC(=O)C(C)(C)C)cc2)cc1	–	19.4	28.7	30.4	26.8	26.5	28	19.3	–	–	–	–	–	–	–	–	–	–	–	–
